# Data: patent US5411956A, “Lipolytic enzyme inhibitors” (Nisshin Flour Milling Co., Ltd., priority 1989, dated 1995)
# T1: porcine pancreatic lipase (Sus scrofa, UniProt P00591)
# T1 construct: purchased Sigma Co., Ltd
# T1 sequence (P00591 1-450): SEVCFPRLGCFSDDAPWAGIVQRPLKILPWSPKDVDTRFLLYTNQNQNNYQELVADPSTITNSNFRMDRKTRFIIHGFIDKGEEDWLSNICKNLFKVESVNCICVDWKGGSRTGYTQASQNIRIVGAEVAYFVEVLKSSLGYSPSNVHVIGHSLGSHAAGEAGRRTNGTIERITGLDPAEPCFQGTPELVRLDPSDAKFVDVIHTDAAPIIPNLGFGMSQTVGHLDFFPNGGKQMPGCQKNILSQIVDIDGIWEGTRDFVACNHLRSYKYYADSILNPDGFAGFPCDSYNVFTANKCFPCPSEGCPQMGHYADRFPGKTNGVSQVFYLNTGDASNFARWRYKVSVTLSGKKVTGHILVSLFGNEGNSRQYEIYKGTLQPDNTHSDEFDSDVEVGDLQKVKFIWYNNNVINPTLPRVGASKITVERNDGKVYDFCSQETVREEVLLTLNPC
# B1: Ovalbumin: ovalbumin (A5503, Sigma Co., Ltd.), not a basic protein (protein, UniProt P01012 2-386, looked up)
# Ovalbumin: GSIGAASMEFCFDVFKELKVHHANENIFYCPIAIMSALAMVYLGAKDSTRTQINKVVRFDKLPGFGDSIEAQCGTSVNVHSSLRDILNQITKPNDVYSFSLASRLYAEERYPILPEYLQCVKELYRGGLEPINFQTAADQARELINSWVESQTNGIIRNVLQPSSVDSQTAMVLVNAIVFKGLWEKAFKDEDTQAMPFRVTEQESKPVQMMYQIGLFRVASMASEKMKILELPFASGTMSMLVLLPDEVSGLEQLESIINFEKLTEWTSSNVMEERKIKVYLPRMKMEEKYNLTSVLMAMGITDVFSSSANLSGISSAESLKISQAVHAAHAEINEAGREVVGSAEAGVDAASVSEEFRADHPFLFCIKHIATNAVLFFGRCVSP
# Key:
# [1] = Serum triglyceride concentration in rats after oral corn oil emulsion; assay type: in vivo, SD male rats; details: 2 ml corn oil emulsion + 100 mg ε-poly-L-lysine/dextrin 1:1, relative to pre-dose (0)
# Procedure: Two groups of 10 SD male rats (9 weeks age, 200 g average bodyweight) were prepared.
# 50 g of corn oil, 6 g of yolk lecithine and 12.5 g of glycerol were added to distilled water to make up to 100 ml. The mixture was ultrasonicated to prepare an emulsion.
# The rats of first group were each given 2 ml of the emulsion and 100 mg of ε-poly-L-lysine manufactured by Chisso Corp. (containing dextrin and ε-poly-L-lysine at a weight ratio of 1:1 and having formula (I) wherein n is ca. 30), orally using a gastric probe. Blood was drawn at predetermined intervals from the tail vein, and serum triglyceride concentration was measured using Kyowa Medics enzyme Kit TG, determined for mean value (mg/dl) per animal and calculated on the basis of serum triglyceride concentration prior to administration (taken as 0 mg/dl) (According to the invention).
# The rats of second group were orally given 2 ml of the emulsion and 50 mg of dextrin. Serum triglyceride concentration was measured at predetermined intervals, determined for the average value and calculated in the same way as above (Comparative example).
# [2] = biological target: T1, porcine pancreatic lipase; experiment: Assay of lipase inhibitory activity (olive oil emulsion with sodium cholate, Tris buffer); assay type: biochemical
# Procedure: 250 mg of an olive oil, 21.5 mg of sodium cholate as a bile acid component and 30 mg of phosphatidylcholine were added to 5 ml of a 200 mM Tris buffer solution at pH 6.8 (called hereafter "Tris buffer").
# (§1) The mixture was ultrasonicated to prepare an olive oil emulsion.
# Porcine pancreatic lipase (manufactured by Sigma Co., Ltd.) was added to Tris buffer to prepare an enzyme solution containing 100 units porcine pancreatic lipase per ml.
# (§2) The control and six test samples were prepared in the following manner.
# (§3) 100 μl of an olive oil emulsion as prepared above were used as a substrate.
# (§4) 50 μl of Tris buffer was added to the substrate to prepare an emulsion for control sample. […] All of the emulsions were incubated for 5 min. To each of those emulsions was added 50 μl of the lipase solution as prepared above. The resulting mixture was incubated at 37° C. for one hour, subsequently to which were added 3 ml of the same extraction solvent as used in Example 1. After being shaken for 5 min., the mixture was centrifuged at 3000 rpm for 5 min. The upper layer was removed with an aspirator and to the remaining solution was added 1 ml of the same copper reagent as used in Example 1. The mixture was shaken for 5 min. and centrifuged at 3000 rpm for 5 min. 0.5 ml of a solution was taken from the upper layer and to the solution was added 0.5 ml of the same color developing agent as used in Example 1.
# (§5) The resulting solutions for control and test samples were measured for the absorbance at 480 nm (A480) using a photometer to determine the amount of the free fatty acids as formed, i.e., the activity of the porcine pancreatic lipase.
# 100 μl of an olive oil emulsion prepared in the same way as in Example 4 were used as a substrate.
# 50 μl of Tris buffer was added to the substrate to prepare an emulsion for control sample. Each 50 μl of the polypeptide-containing solutions as prepared above was added to 100 μl of the substrate to prepare two emulsions for test sample. After incubating the emulsions for 5 min., there was added 50 μl of the enzyme solution prepared in the same way as in Example 4.
# Further, the incubated mixture was treated and measured for the activity of porcine pancreatic lipase in the same way as in Example 4.
# Lysine oligomers having a degree of polymerization of 2-5 as shown in Table 6 below were prepared using a peptide synthesizer (Biolynx 4170, LKB-Pharmacia Co., Ltd.). Each of the oligomers was purified by high performance liquid chromatography. Each of the purified oligomers was added to distilled water to make up to 1 μmol/ml. […] lysine oligomer-containing solutions were thus prepared.
# 50 μl of Tris buffer was added to the substrate to prepare an emulsion for control sample. […] After incubating the emulsions for 5 min., there was added 50 μl of a lipase solution containing 100 units of porcine pancreatic lipase per ml as prepared in the same way as in Example 4.
# [3] = biological target: T1, porcine pancreatic lipase; experiment: Assay of lipase inhibitory activity of proteins (olive oil emulsion with sodium cholate, potassium phosphate buffer); assay type: biochemical; details: for Activity of porcine pancreatic lipase (%): 4 mg/ml protein solution, percentage of control Abs480, sodium cholate present, potassium phosphate buffer pH 6.8, 37 °C, one hour
# Procedure: 250 mg of an olive oil, 21.5 mg of sodium cholate as a bile acid component and 30 mg of phosphatidylcholine were added to 5 ml of a 300 mM potassium phosphate buffer solution at pH 6.8 (called hereafter "potassium phosphate buffer").
# as §1
# Porcine pancreatic lipase (manufactured by Sigma Co., Ltd.) was added to the potassium phosphate buffer solution to prepare a lipase solution containing 100 units porcine pancreatic lipase per ml.
# as §2, §3
# 50 μl of potassium phosphate buffer was added to the substrate to prepare an emulsion for control sample. Each 50 μl of the protein(polypeptide)-containing solutions as prepared above was added to 100 μl of the substrate to prepare six emulsions for test samples. All of the emulsions were incubated for 5 min. To each of those emulsions was added 50 μl of the lipase solution as prepared above. The resulting mixture was incubated at 37 ° C. for one hour, subsequently to which were added 3 ml of an extraction solvent (chloroform:methanol:n-heptane=49:1:49). After being shaken for 5 min., the mixture was centrifuged at 3000 rpm for 5 min. The upper layer was removed with an aspirator and to the remaining solution was added 1 ml of a copper reagent (0.45M triethanol amine, 0.05N acetic acid, 3.4% copper sulfate pentahydrate and 20% sodium chloride). The mixture was shaken for 5 min. and centrifuged at 3000 rpm for 5 min. 0.5 ml of a solution was taken from the upper layer and to the solution was added 0.5 ml of a color developing agent (a solution of 0.1% bathocuproine and 0.05% butyl hydroxyanisole in the above extraction solvent).
# as §5
# [4] = tested on: cholesterol esterase isolated from porcine pancreas; details: 4 mg/ml protein solution; percentage of control Abs480; sodium cholate present; 37 °C, one hour
# Procedure: as §3
# as §4, with “potassium phosphate” for “Tris”
# [5] = 1 mg/ml peptide solution in distilled water, Tris buffer system as Example 4
# [6] = 1 mg per 10 ml Tris buffer solution, pH 6.8, sodium cholate present, percentage of control Abs480
molecule,measurement,setting,value
ε-poly-L-lysine,Blood concentration of neutral fats,[1]; 1 hr after oral administration,53.3 ± 2.5 mg/dL
same,Blood concentration of neutral fats,[1]; 2 hrs after oral administration,32.4 ± 4.9 mg/dL
same,Blood concentration of neutral fats,[1]; 3 hrs after oral administration,16.7 ± 3.2 mg/dL
same,Blood concentration of neutral fats,[1]; 4 hrs after oral administration,11.1 ± 3.0 mg/dL
same,Blood concentration of neutral fats,[1]; 7 hrs after oral administration,4.2 ± 1.0 mg/dL
α-poly-D-lysine hydrobromide,Activity of porcine pancreatic lipase (%),[2]; [5],1.1%
α-poly-L-lysine hydrochloride,Activity of porcine pancreatic lipase (%),[2]; [6],6.9%
same,Activity of porcine pancreatic lipase (%),[2]; [5],1.6%
β-Purothionin: purified β-purothionin (SEQ ID NO: 3) isolated from the crude wheat purothionin mixture (KSCCKSTLGRNCYNLCRARGAQKLCANVCRCKLTSGLSCPKDFPK),Activity of porcine pancreatic lipase (%),[3],0%
same,Activity of porcine pancreatic lipase,"[3]; concentration of 0.04 mg/ml, separate experiment in a similar manner",5.2%
same,Lipase activity,"[3]; protein solution diluted to 0.2 mg/ml, otherwise as Example 1",0%
same,Activity of porcine pancreatic lipase (%),[2]; [6],1.3%
"β-Lactoglobulin: β-lactoglobulin (L0130, Sigma Co., Ltd.), not a basic protein [reference compound]",Activity of porcine pancreatic lipase (%),[3],103.9%
same,Activity of cholesterol esterase (%),[4],89.9%
Protamine,Activity of porcine pancreatic lipase (%),[2]; [6],1.3%
B1,Activity of porcine pancreatic lipase (%),[3],107.0%
same,Activity of cholesterol esterase (%),[4],93.6%
